From patent US9018209B2, “Compounds and methods for the treatment of viruses and cancer” (Yale University, priority 2005, dated 2015) come the findings set out here.

Broadly, the EC50 is the concentration giving half of the maximal effect. What is called CC50 is the concentration giving 50% cytotoxicity. One may read the IC50 as the midpoint of a concentration-inhibition curve.

Where two headings read alike, the source gives them in different places.

The subject of series [1] is IIIB strain of HIV-1. The series can be described thus: Anti-HIV-1 activity: protection of infected MT-2 cells, MTT colorimetric method. In kind it is cell-based. The conditions noted are these: for fold lower potency (higher EC50) than the corresponding DMA ether: Table 2b compounds; for EC50: read-out: EC50. (In general: Tetrazolium dyes change colour on reduction, which living cells bring about.)

The subject of series [2] is MT-2 human T-cells. The series is described as follows: Cytotoxicity: inhibition of MT-2 cell growth. Particulars: for IC50: cytotoxicity, read-out: IC50. The class given is cell-based. The source says:
(§1) The preparation of the analogues 4a-h involved the reaction between 2-bromothiazole 1 with the corresponding 5-amino-2-R-phenol 2, followed by reaction with 4-bromo-2-methyl-2-butene in presence of Cs2CO3 as a base (Scheme 1; see Table 1 for antiviral activities (EC50) and cytotoxicities (IC50) of these compounds, as determined using human MT-2 cells infected with IIIB strain of HIV-1).
(§2) See, Ruiz-Caro, supra. and Lin, et al., Biochem. Pharmacol. 1994, 47, 171-174.

Series [3] is described as follows: Cytotoxicity: inhibition of MT-2 cell growth. The class given is cell-based, human. Particulars: human, MT-2 T-cells; Table 2b; MT-2 cells.
Excerpt: as §1, §2

Where [4] appears, read: Table 2b, derivatives of pyrimidine 11, NA for EC50 > CC50.
Setting [5] is: Table 3, thiazoles 18-23, N/A read as no activity.
Where [6] appears, read: Human immunodeficiency virus 1, IIIB, MT2, Table 1a, heteroaryl derivatives, N/A read as no activity.
The mark [7] stands for this setting: Homo sapiens, MT2, Table 1a, MT-2 cells.
[8] abbreviates: Human immunodeficiency virus 1, IIIB, MT2.
The mark [9] stands for this setting: Table 1B, for 50% inhibition of MT-2 cell growth, triplicate samples.
[10] abbreviates: Homo sapiens, MT2, Table of bicyclic-heteroaryl phenyl amines, MT-2 cell assays.
[11] abbreviates: Human immunodeficiency virus 1, IIIB, MT2, Table of bicyclic-heteroaryl phenyl amines, MT-2 cell assays.
Setting [12] is: Table of bicyclic-heteroaryl phenyl amines, MT-2 cell assays.

For `C/C=C/COc1cc(Nc2nccc(OC)n2)ccc1Cl` [Compound 11c], the “fold lower potency (higher EC50) than the corresponding DMA ether” value in series [1] is “ca. 10 fold”. Moreover, the EC50 in series [1] (setting [4]) worked out at 0.089 µM. The compound also returned a CC50 in series [2] (Table 2b, MT-2 cells) of 17 µM.
As for `COc1ccnc(Nc2ccc(Cl)c(Oc3ccccc3)c2)n1` [Compound 11d], the “fold lower potency (higher EC50) than the corresponding DMA ether” value in series [1] is listed as “ca. 100 fold”. Further, the EC50 in series [1] (setting [4]) came out at 2.5 µM. Also, the CC50 in series [2] (Table 2b, MT-2 cells) was determined as 38 µM.
Take `CC/C(C)=C\COc1cc(Nc2nccs2)ccc1Cl` [Compound 18d, (E/Z)-N-(4-chloro-3-(3-methylpent-2-enyloxy)phenyl)thiazol-2-amine]: the EC50 in series [1] (setting [5]) turned out to be 1 µM. In series [2] (Table 3, MT-2 cells), the IC50 worked out at 18 µM.
For `CC(C)=CCOc1cc(Nc2ncccn2)ccc1C` [Compound 39b, N-(4-Methyl-3-(3-methylbut-2-enyloxy)phenyl)pyrimidin-2-amine], the EC50 in series [1] (setting [6]) is 2.8 µM. Besides, the IC50 in series [2] (setting [7]) came out at 78 µM.
`CC(C)=CCOc1cc(Nc2ncccn2)ccc1Cl` [Compound 39d, N-(4-Chloro-3-(3-methylbut-2-enyloxy)phenyl)pyrimidin-2-amine]: the EC50 in series [1] (setting [6]) amounted to 0.2 µM. For the same compound, the CC50 in series [3] was 2.5 µM. Further, the IC50 in series [2] (setting [7]) was 2.5 µM; in series [2] (Homo sapiens, MT2, Table 2a, MT-2 cells), < 0.2 µM.
For `CC(C)=CCOc1cc(Nc2ncccn2)ccc1C#N` [Compound 39h, N-(4-Cyano-3-(3-methylbut-2-enyloxy)phenyl)pyrimidin-2-amine], the EC50 in series [1] (setting [8]) turned out to be 0.017 µM. The IC50 in series [2] (setting [7]) was < 0.2 µM. This compound yielded a CC50 in series [2] (setting [9]) of 0.036 µM.
For the compound `CC(C)=CCOc1cc(Nc2nccc(N)n2)ccc1C` [Compound 40b, N^2-(4-Methyl-3-(3-methylbut-2-enyloxy)phenyl)pyrimidin-2,4-diamine], in series [1] (setting [6]), the EC50 stood at 0.35 µM. In addition, the IC50 in series [2] (setting [7]) was found to be 6.5 µM.
Regarding `CC(C)=CCOc1cc(Nc2nccc(N)n2)ccc1Cl` [Compound 40d, N^2-(4-Chloro-3-(3-methylbut-2-enyloxy)phenyl)pyrimidin-2,4-diamine], the EC50 in series [1] (setting [6]) was determined as 0.075 µM. Further, the IC50 in series [2] (setting [7]) is > 1 µM.
With `CC(C)=CCOc1cc(Nc2nccc(C)n2)ccc1Cl` [Compound 41d, N-(4-Chloro-3-(3-methylbut-2-enyloxy)phenyl)-4-methylpyrimidin-2-amine], the EC50 in series [1] (setting [8]) turned out to be 0.039 µM. Further, in series [2] (setting [7]), the IC50 is < 0.2 µM. The compound further displayed a CC50 in series [2] (setting [9]) of 0.15 µM.
For `COc1ccnc(Nc2ccc(C)c(OCC=C(C)C)c2)n1` [Compound 42b, 4-Methoxy-N-(4-methyl-3-(3-methylbut-2-enyloxy)phenyl)pyrimidin-2-amine], the EC50 in series [1] (setting [6]) turned out to be 0.32 µM. Besides, in series [2] (setting [7]), the IC50 turned out to be 41 µM.
For `COc1ccnc(Nc2ccc(Cl)c(OCC=C(C)C)c2)n1` [Compound 42d, N-(4-Chloro-3-(3-methylbut-2-enyloxy)phenyl)-4-methoxypyrimidin-2-amine], in series [1] (setting [6]), the EC50 is 0.01 µM. In addition, the IC50 in series [2] (setting [7]) stood at 9 µM.
Turning to `CSc1ccnc(Nc2ccc(Cl)c(OCC=C(C)C)c2)n1` [Compound 48], the EC50 in series [1] (Table 1a, heteroaryl derivatives, N/A read as no activity) is 0.18 µM. For the same compound, the IC50 in series [2] (Table 1a, MT-2 cells) came to 2.8 µM.
Take `Cc1nccc(C(F)(F)F)n1` [Compound 49]: the EC50 in series [1] (setting [6]) came out at 0.065 µM. Further, the IC50 in series [2] (setting [7]) is 2.5 µM.
Take `O=C1Nc2ccc(Cl)cc2[C@@](C#CC2CC2)(C(F)(F)F)O1` [Efavirenz, efavirenz, reference compound]: the EC50 in series [1] (setting [8]) stood at 0.002 µM. Moreover, the IC50 in series [2] (setting [10]) was > 0.1 µM. Further, in series [2] (setting [9]), the CC50 was > 0.1 µM.
Consider `CC(C)=CCOc1cc(Nc2nccc3occc23)ccc1Cl` [compound 54], for which the EC50 in series [1] (setting [11]) came to 0.006 µM. The IC50 in series [2] (setting [10]) was determined as 25 µM.
As for `CC(C)=CCOc1cc(Nc2nccc3cc[nH]c23)ccc1Cl` [compound 58], the EC50 in series [1] (setting [11]) stood at 0.9 µM. Further, in series [2] (setting [10]), the IC50 amounted to 9.2 µM.
As for `CC(C)=CCOc1cc(Nc2nccc3cccn23)ccc1Cl` [compound 59], the EC50 in series [1] (setting [11]) turned out to be 0.13 µM. For the same compound, the half-maximal inhibitory concentration (IC50) in series [2] (setting [10]) was 17 µM.
In the same order, the values of `CC(C)=CCOc1cc(Nc2nccn3cccc23)ccc1Cl` [compound 60] are 0.019 µM and 20 µM.
As for `CC(C)=CCOc1cc(Nc2ncc3ccoc3n2)ccc1Cl` [compound 61], in series [1] (setting [11]), the EC50 was 0.13 µM. In series [2] (setting [10]), the concentration for half-maximal inhibition (IC50) was 20 µM.
As to `CC(C)=CCOc1cc(Nc2nccc3ccoc23)ccc1Cl` [furopyridine 56a], in series [1] (setting [12]), the EC50 worked out at 0.08 µM. Also, in series [2] (setting [12]), the IC50 came to 21 µM.
In the same order, the values of `CC(C)=CCOc1cc(Nc2nccc3ccoc23)ccc1C#N` [furopyridine 56b] are 0.011 µM and 0.091 µM.
In the case of `CC(C)=CCOc1cc(Nc2nccc3ccccc23)ccc1Cl` [isoquinoline 62a], the EC50 in series [1] (setting [12]) was 0.034 µM. In series [2] (setting [12]), the IC50 is 19 µM.
Regarding `CC(C)=CCOc1cc(Nc2nccc3ccccc23)ccc1C#N` [isoquinoline 62b], the EC50 in series [1] (setting [12]) amounted to 0.003 µM. Besides, the IC50 in series [2] (setting [12]) is 4.4 µM.
For the compound “N-(4-Chloro-3-(cyclopentenyloxy)phenyl)thiazol-2-amine [Compound 20d]”, the EC50 in series [1] (setting [5]) turned out to be 5 µM. The IC50 in series [2] (Table 3, MT-2 cells) worked out at 15 µM.
